From patent US6184230A, “Anti-helicobacter pylori pharmaceutical composition” (Yamanouchi Pharmaceutical Co., Ltd., priority 1997, dated 2001)
In brackets after ≈: the same amount, converted by molar mass.

Assays:
Format in all cases: cell-based
other bacteria = assay: Selectivity, influence upon other bacteria (general statement)
Helicobacter pylori = assay: Anti-Helicobacter pylori activity (general statement)
[1] = system: Peptostreptococcus productus CAYA 12-2; assay: In vitro test on anaerobes (MIC), Example 4; conditions: Blautia producta, CAYA122, 18 h
Experimental: (§1) An in vitro test on anaerobes was carried out in the following manner.
(§2) Preparation of Antibacterial Substance-containing Agar Plate
(§3) The substance to be evaluated was dissolved in 100% dimethyl sulfoxide (DMSO) and diluted by 2-fold serial dilution. Each of the dilution solutions was put into a sterilized round Petri dish and mixed with 10 ml of GAM agar medium which had been sterilized and kept at 50° C., and the mixture was solidified. Final concentration of DMSO becomes 1% or less.
(§4) Preparation of Inoculation Material and Judgment of Test Results
(§5) Each strain to be tested was cultured overnight at 37° C. in GAM broth using an anaerobic culturing apparatus whose inside atmosphere had been replaced with a mixed gas system of 80% N2, 10% CO2 and 10% H2, and the resulting broth was diluted to a density of about 10^6 cells/1 ml using the same GAM broth. About 5 μl portion of the dilution was inoculated onto the surface of the drug-containing agar medium using a microplanter. The thus inoculated agar plate was cultured at 37° C. for 18 hours using the anaerobic culturing apparatus. After completion of the culturing, the agar plate was observed, and the minimum drug concentration by which cell growth was not observed was defined as MIC.

[2] = system: Bacteroides fragiris GAI 5562; assay: In vitro test on anaerobes (MIC), Example 4; conditions: GAI5562, 18 h
Experimental: as §1, §2, §3, §4, §5

[3] = system: Bifidobacterium bifidum CAYA 21-1; assay: In vitro test on anaerobes (MIC), Example 4; conditions: CAYA211, 18 h
Experimental: as §1, §2, §3, §4, §5

[4] = system: Helicobacter pylori ATCC 43504; assay: Measurement of antibacterial activity (in vitro, MIC on Brucella agar), Example 2; conditions: ATCC43504, Brucella agar medium (0.1% β-cyclodextrin), 37° C., 3 days (72 hours), N2 80%, CO2 15%, O2 5%
Experimental: An in vitro test of the aforementioned substance was carried out in the following manner.
Measurement of antibacterial activity
as §2
as §3, with “Brucella” for “GAM”, “medium (0.1% β-cyclodextrin)” for “medium”
as §4
A Helicobacter pylori strain, for example Helicobacter pylori ATCC 43504, was cultured at 37° C. for 3 days in a multi gas incubator (N2 : 80%, CO2 : 15%, O2: 5 %) using Brucella agar medium (containing 5% calf serum albumin) and then prepared into a cell suspension of about 10^8 cells/1 ml using Brucella broth based on its turbidity. The cell suspension was diluted 100 times with Brucella broth, and about 5 μl portion of the dilution was inoculated onto the surface of the drug-containing agar medium using a microplanter. The thus inoculated agar plate was cultured at 37° C. for 3 days (72 hours) in the aforementioned multi gas incubator. […]

[5] = system: Pseudomonas aeruginosa NCTC 10490; assay: In vitro test on facultative anaerobes and aerobes (MIC), Example 3; conditions: NCTC10490; Pseudomonas aeruginosa NCTC 10490, Muller-Hinton agar, 37° C., 18 hours
Experimental: (§6) An in vitro test on facultative anaerobes and aerobes was carried out in the following manner.
as §2
as §3, with “Muller-Hinton” for “GAM”
as §4
(§7) Each strain to be tested was cultured overnight in an incubator set at 37° C. using Muller-Hinton broth, and the resulting broth was diluted to a density of about 10^6 cells/1 ml using Muller-Hinton broth. About 5 μl portion of the dilution was inoculated onto the surface of the drug-containing agar medium using a microplanter. The thus inoculated agar plate was cultured at 37° C. for 18 hours in an incubator. After completion of the culturing, the agar plate was observed, and the minimum drug concentration by which cell growth was not observed was defined as MIC.

Escherichia coli 0-1 = assay: as above; conditions: 01; Escherichia coli 0-1, Muller-Hinton agar, 37° C., 18 hours
Experimental: as §6, §2
as §3, with “Muller-Hinton” for “GAM”
as §4, §7

[6] = system: Staphylococcus aureus FDA 209P; assay: as above; conditions: FDA209P, Muller-Hinton agar, 37° C., 18 hours
Experimental: as §6, §2
as §3, with “Muller-Hinton” for “GAM”
as §4, §7

SMILES	influences upon other bacteria (other bacteria)	selectivity (other bacteria)	anti-Helicobacter pylori activity (Helicobacter pylori)	MIC [1] [µg/mL]	MIC [2] [µg/mL]	MIC [3] [µg/mL]	MIC [4] [µg/mL]	MIC [5] [µg/mL]	MIC (Escherichia coli 0-1) [µg/mL]	MIC [6] [µg/mL]
CCCCCC/C=C/Cc1c(C)c(=O)c2ccccc2n1O [YL-02729S]	does not exert influences upon other bacteria	high selectivity	excellent anti-Helicobacter pylori activity							
CCCCCC/C=C/Cc1c(C)c(=O)c2ccccc2n1O [1-hydroxy-2-(2-trans-nonenyl)-3-methyl-4(1H)-quinolone]				> 25	> 25	> 25	0.025 (≈ 0.0835 µM)	≥ 12.5	≥ 12.5	≥ 12.5
